According to patent US11565005B2, “Dota-hapten compositions for anti-dota/anti-tumor antigen bispecific antibody pretargeted radioimmunotherapy” (MEMORIAL SLOAN KETTERING CANCER CENTER, priority 2017, dated 2023):

What was measured:
anti-HER2-C825 = assay: In vitro mixing with DOTA-PRIT BsAb followed by size-exclusion chromatography; type: binding
Description: In vitro Mixing of [^225Ac]Proteus-DOTA with a DOTA-PRIT BsAb, followed by In vivo Targeting Studies. […] After one week of storage of [^225Ac]Proteus-DOTA at room temperature, an in vitro mixing experiment consisting of mixing 145 μL of 6.91 mg/mL of anti-HER2-C825 (4.8 nmol of BsAb or 9.6 nmol of C825) and 90 μL of [^225Ac]Proteus-DOTA (488 nCi/8.64 nmol) for 1 h at room temperature (final volume 235 μL). As a control, 1 mg of trastuzumab (6.67 nmol) with also mixed in vitro with 90 μL of [^225Ac]Proteus-DOTA (468 nCi/8.64 nmol) in the same manner as the anti-HER2-C825. These two solutions were run separately on PD-10 size-exclusion columns pre-equilibrated with saline+1% human serum albumin, and were compared with the column elution of 90 μL (488 nCi/8.64 nmol) of [^225Ac]Proteus-DOTA only. Elution fractions were counted on the gamma-counter using an open window setting.
This was done by mixing the BsAb (˜210 kD) in slight molar excess to [^225Ac]Proteus-DOTA (9.6 nmol of C825/8.6 nmol of [^225Ac]Proteus-DOTA), followed by incubation at room temperature for 1 hour.

[1] = system: HER2-expressing BT-474 xenografts; assay: Ex vivo biodistribution of BsAb/hapten complex or hapten alone in BT-474 tumor-bearing mice; set-up: species or system athymic nude mice; conditions: 4 h after injection
Description: The ^225Ac-Proteus-DOTA haptens were injected intravenously via the lateral tail vein and euthanized 4 hours later for organ collection and radioactivity assessment. Asterisk (*) indicates levels below the limit of detection. Two groups of nude mice with subcutaneous BT474 tumors (3 mice each) were treated with either: [^225Ac Proteus-DOTA] only (0.51 nmol/mouse; ˜30 nCi of ^225Ac/mouse) or PD10-purified [anti-HER2-C825/[^225Ac Proteus-DOTA] complex (estimate 1.79 nmol of ^225Ac Proteus-DOTA/mouse, 1.0 nmol of antibody/mouse; 100 nCi ^225Ac/mouse), and sacrificed 4 h post-injection for ex vivo biodistribution assay. The tissue samples were read in the gamma counter the following day at equilibrium.
Biodistribution Experiments.
To determine whether isolated BsAb/[^225Ac]Proteus-DOTA complexes could target tumors in vivo, a biodistribution assay was conducted after SEC purification with two groups of athymic nude mice (n=3) bearing subcutaneous HER2-expressing BT-474 xenografts. […]

[2] = Biodistribution of [^225Ac]Proteus-DOTA alone in tumor-free nude mice; type: in vivo; conditions: hapten alone, 1 h p.i.
Description: Carcass radioactivity was not collected during this study.

[3] = n = 3, listed as [^225Ac] Proteus-DOTA

Structure (SMILES): O=C([O-])CN1CCN(CC(=O)[O-])CCN(CC(=O)NCCOCCOCCOCCOCCNC(=S)Nc2ccc(CC3CN(CC(=O)[O-])CCN(CC(=O)[O-])CCN(CC(=O)[O-])CCN3CC(=O)[O-])cc2)CCN(CC(=O)[O-])CC1.[225Ac+3].[Lu+3] (stereo not shown) [[^225Ac]Proteus-DOTA]
- remaining activity recovered in elution fractions between 4.6-7.1 mL (anti-HER2-C825; PD-10 size-exclusion column): 90%
- recovered ^225Ac-activity eluting within the first 4.1 mL (anti-HER2-C825; PD-10 size-exclusion column after 1 h mixing at room temperature): 9.3%
- uptake in all assayed tissues [1]: ≤ 2 % ID/g
- tumor accumulation ([1]; BT-474 xenograft, i.v., n=3): 0.50±0.34 % ID/g
- Blood uptake ([2]; n = 3): 0.31±0.54 % ID/g
- Bone uptake ([2]; n = 3): 0.45 ± 0.79 % ID/g
- Kidneys uptake ([2]; n = 3): 0.63±0.41 % ID/g
- Large Intestine uptake ([2]; n = 3): 0.02 ± 0.02 % ID/g
- Liver uptake ([2]; n = 3): 0.04±0.06 % ID/g
- Muscle uptake ([2]; n = 3): 0.98 ± 0.91 % ID/g
- Small Intestine uptake ([2]; n = 3): 0.16 ± 0.26 % ID/g
- Spleen uptake ([2]; n = 3): 0.04 ± 0.06 % ID/g
- Stomach uptake ([2]; n = 3): 0.24 ± 0.38 % ID/g
- Blood uptake [2, 3]: 0.31 ± 0.54 % ID/g
- Kidneys uptake [2, 3]: 0.63 ± 0.41 % ID/g
- Liver uptake [2, 3]: 0.01 ± 0.02 % ID/g
